The values that follow come from US7638540B2, “Benzofuran compound and medicinal composition containing the same” (The New Industry Research Organization, priority 2003, dated 2009).

Each structure is given as a SMILES string.

`CC(=O)c1oc2ccc(C#N)cc2c1NC(=O)/C(C#N)=C(/C)O` [Example 93, (Z)-N-(2-acetyl-5-cyanobenzofuran-3-yl)-2-cyano-3-hydroxy-2-butenamide] gave a melting point of 216 to 218 °C.

Consider `C/C=C/C(=O)Nc1c(C(=O)c2ccc(Cl)cc2)oc2ccc(Br)cc12` [Example 115, (E)-N-[5-bromo-2-(4-chlorobenzoyl)benzofuran-3-yl]-2-butenamide], for which the melting point was in the range of 210.4 to 212.8 °C. In turn, `COc1ccc2oc(-c3csc(-c4ccccc4)n3)c(-c3ccc(Cl)cc3)c2c1` [Example 215, 4-[3-(4-chlorophenyl)-5-methoxybenzofuran-2-yl]-2-phenylthiazole] had a melting point of 151.3 to 153.3 °C. Next, `COC(=O)COc1cccc2cc(C(C)NC(=O)c3cnoc3C)oc12` (stereo not shown) [Example 124, Methyl (2-{1-[(5-methylisoxazole-4-carbonyl)amino]ethyl}benzofuran-7-yloxy)acetate]: 111.8 to 114.6 °C. The compound `Brc1ccc2oc(-c3csc(-c4ccccc4)n3)cc2c1` [Example 212, 4-(5-bromobenzofuran-2-yl)-2-phenylthiazole] returned a melting point of 185.5 to 187.8 °C. To `C/C=C/C(=O)Nc1c(C(C)=O)oc2ccc(Br)cc12` [Example 123, (E)-N-(2-acetyl-5-bromobenzofuran-3-yl)-2-butenamide] belongs 127.8 to 130 °C. Next, `Cc1oncc1C(=O)Nc1c(C(=O)/C=C/c2ccccc2)oc2ccc(Br)cc12` [Example 173, (E)-5-methylisoxazole-4-carboxylic acid [5-bromo-2-(3-phenylacryloyl)benzofuran-3-yl]amide]: 219.6 to 220.3 °C. Next, `Cc1nc(-c2cc3cc(Br)ccc3o2)cs1` [Example 216, 4-(5-bromobenzofuran-2-yl)-2-methylthiazole]: 167.4 to 167.9 °C; `C/C(O)=C(\C#N)C(=O)Nc1c(C#N)oc2ccccc12` [Example 105, (Z)-N-(2-cyanobenzofuran-3-yl)-2-cyano-3-hydroxy-2-butenamide]: 165.8 to 167.2 °C; `CC(=O)c1cc2cc(/C(C)=C/C(=O)O)ccc2o1` [Example 134, (E)-3-(2-acetylbenzofuran-5-yl)-2-butenoic acid]: 220.4 to 223.5 °C. As to `Cc1oc2ccc(Br)cc2c1/C(Cl)=C/C=O` [Example 151, (Z)-3-(5-bromo-2-methylbenzofuran-3-yl)-3-chloropropenal], the melting point lay within 99.8 to 104 °C. To `CCCCc1oc2ccccc2c1/C(C)=C/C(=O)NCCc1ccc(OC)c(OC)c1` [Example 157, (E)-3-(2-butylbenzofuran-3-yl)-2-butenoic acid [2-(3,4-dimethoxyphenyl)ethyl]amide] belongs 95 to 99 °C; to `CCOC(=O)C(CSCc1ccccc1)NC(=O)/C=C/C=C(\Cl)c1cc2cc(Br)ccc2o1` (stereo not shown) [Example 64, Ethyl (2E,4Z)-3-benzylsulfanyl-2-[5-(5-bromobenzofuran-2-yl)-5-chloropenta-2,4-dienoylamino]propionate], 133.7 to 135.4 °C; to `O=C(O)CCCOc1cccc2cc(C(Cl)=CC=CC(=O)N3CCOCC3)oc12` (stereo in doubt) [Example 147, (2E,4Z)-4-[2-(1-chloro-5-morpholin-4-yl-5-oxo-penta-1,3-dienyl)benzofuran-7-yloxy]butyric acid], 152.5 to 154.8 °C.

In the case of `CCOC(=O)/C=C/C=C(\Cl)c1cc2cc(Br)ccc2o1` [Example 159, Ethyl (2E,4Z)-5-(5-bromobenzofuran-2-yl)-5-chloropenta-2,4-dienoate], the melting point was 109 to 113 °C. To `COc1ccc(/C=C/C(=O)c2oc3ccc(Br)cc3c2NC(=O)CCCl)cc1` [Example 195, (E)-N-{5-bromo-2-[3-(4-methoxyphenyl)-acryloyl]benzofuran-3-yl}-3-chloropropionamide] belongs 170.7 to 172 °C; to `COc1ccc(NC(=O)/C=C(/C)c2cc3cccc(OC(c4ccccc4)c4ccccc4)c3o2)cc1OC` [Example 43, (Z)-3-(7-benzhydryloxybenzofuran-2-yl)-N-(3,4-dimethoxyphenyl)-2-butenamide], 93.9 to 94.5 °C. To `COc1ccc(NC(=O)/C=C(\C)c2cc3cccc(OC(C)c4ccccc4)c3o2)cc1` (stereo not shown) [Example 172, (E)-3-[7-(1-phenylethoxy)benzofuran-2-yl]-2-butenoic acid (4-methoxyphenyl)amide] belongs 120 to 125 °C; to `C/C=C/C(=O)Nc1c(Cl)oc2ccc(Br)cc12` [Example 184, (E)-2-butenoic acid (5-bromo-2-chlorobenzofuran-3-yl)amide], 200 to 202 °C. To `COc1cccc2cc(/C(Cl)=C/C=C/C#N)oc12` [Example 61, (2E,4Z)-5-chloro-5-(7-methoxybenzofuran-2-yl)penta-2,4-dienenitrile] belongs 98.9 to 101.2 °C; to `CCNS(=O)(=O)c1ccc(OCCCC(=O)OCC)c2oc(C(C)NC(=O)c3cnoc3C)cc12` (stereo not shown) [Example 125, Ethyl 4-(4-ethylsulfamoyl-2-{1-[(5-methylisoxazole-4-carbonyl)amino]ethyl}benzofuran-7-yloxy)butyrate], 88.1 to 90 °C. Compound `CCOC(=O)/C=C/C=C(\Cl)c1cc2cccc(OC)c2o1` [Example 62, Ethyl (2E,4Z)-5-chloro-5-(7-methoxybenzofuran-2-yl)penta-2,4-dienoate] showed a melting point of 113.9 to 117.6 °C.

For `COc1ccc2c(NC(=O)c3cnoc3C)c(C(C)=O)oc2c1` [Example 83, N-(2-acetyl-6-methoxybenzofuran-3-yl)-5-methylisoxazole-4-carboxamide], the melting point fell in the range of 168.2 to 170.1 °C. Turning to `CCN(CC)C(=O)/C=C(\C)c1ccc(OC(c2ccccc2)c2ccccc2)c2oc(C(C)=O)cc12` [Example 4, (E)-3-(2-acetyl-7-benzhydryloxybenzofuran-4-yl)-N,N-diethyl-2-butenamide], the melting point lay in the range of 163.3 to 165.2 °C.

With `COc1cccc(NC(=O)/C=C(\C)c2cc3c(Br)ccc(OCCN(C)C)c3o2)c1` [Example 39, (E)-3-[4-bromo-7-(2-dimethylaminoethoxy)benzofuran-2-yl]-N-(3-methoxyphenyl)-2-butenamide], the melting point was 176.4 to 181.5 °C. Next, `CC(=O)c1oc2ccc(/C(C)=C/C(=O)N3CCOCC3)cc2c1N` [Example 23, (E)-3-(2-acetyl-3-aminobenzofuran-5-yl)-1-morpholino-2-buten-1-one]: 256.4 to 262.1 °C; `C/C=C/C(=O)Nc1c(Cl)oc2c(OC)cccc12` [Example 187, (E)-2-butenoic acid (2-chloro-7-methoxybenzofuran-3-yl)amide]: 216 to 217 °C; `COc1ccc(NC(=O)/C=C(\C)c2oc3c(Cl)cccc3c2-c2ccc(Cl)cc2)cc1` [Example 143, (E)-3-[7-chloro-3-(4-chlorophenyl)benzofuran-2-yl]-2-butenoic acid (4-methoxyphenyl)-amide]: 168.9 to 170 °C. Next, `CCN(CC)C(=O)/C=C(\C)c1ccc2oc(C(C)=O)c(NC(=O)c3cnoc3C)c2c1` [Example 74, (E)-N-[2-acetyl-5-(2-diethylcarbamoyl-1-methylvinyl)benzofuran-3-yl]-5-methylisoxazole-4-carboxamide]: 170.3 to 174.1 °C; `COc1cccc2c(NC(C)=O)c(C(C)=O)oc12` [Example 208, N-(2-acetyl-7-methoxybenzofuran-3-yl)acetamide]: 206.6 to 209.5 °C.

Turning to `COc1cccc2c(NC(=O)/C(C#N)=C(/C)O)c(C(C)=O)oc12` [Example 102, (Z)-N-(2-acetyl-7-methoxybenzofuran-3-yl)-2-cyano-3-hydroxy-2-butenamide], the melting point lay in the range of 207.2 to 208.9 °C. Next, `O=C(/C=C/c1ccccc1)Nc1c(C(=O)c2ccc(Cl)cc2)oc2ccc(Br)cc12` [Example 113, (E)-N-[5-bromo-2-(4-chlorobenzoyl)benzofuran-3-yl]-3-phenylacrylamide]: 171.2 to 171.8 °C; `CCOC(=O)c1oc2ccc(/C(C)=C/C(=O)N(CC)CC)cc2c1NC(=O)c1cnoc1C` [Example 91, Ethyl (E)-5-(2-diethylcarbamoyl-1-methylvinyl)-3-[(5-methylisoxazole-4-carbonyl)amino]benzofurane-2-carboxylate]: 138.9 to 141.2 °C. To `C/C=C/C(=O)Nc1c(C(=O)/C=C/N(C)C)oc2ccc(Br)cc12` [Example 177, (E)-2-butenoic acid [5-bromo-2-(3-dimethylamino-(E)-acryloyl)benzofuran-3-yl]amide] belongs 247.5 to 249.5 °C; to `C/C(=C\C(=O)N1CCOCC1)c1ccc2oc(C(=O)c3ccccc3)cc2c1` [Example 25, (E)-3-(2-benzoylbenzofuran-5-yl)-1-morpholino-2-buten-1-one], 115.5 to 117 °C; to `C/C=C/C(=O)NC(C)c1cc2cccc(OCCCCl)c2o1` (stereo not shown) [Example 133, (E)-N-{1-[7-(3-chloropropoxy)benzofuran-2-yl]ethyl}-2-butenamide], 104.7 to 107.7 °C. To `CC(=O)c1cc2c(/C(C)=C/C(=O)N3CCN(Cc4ccccc4)CC3)ccc(OC(c3ccccc3)c3ccccc3)c2o1` [Example 12, (E)-3-(2-acetyl-7-benzhydryloxybenzofuran-4-yl)-1-(4-benzylpiperazin-1-yl)-2-buten-1-one] belongs 132.1 to 136.5 °C; to `CC(=O)Nc1c(C(=O)/C=C/N(C)C)oc2ccc(Br)cc12` [Example 194, (E)-N-[5-bromo-2-(3-dimethylaminoacryloyl)benzofuran-3-yl]acetamide], 221.1 to 222 °C.

For `C/C=C/C(=O)NC(C)c1cc2ccccc2o1` (stereo not shown) [Example 192, (E)-2-butenoic acid (1-(benzofuran-2-yl)ethyl)amide], the melting point was in the range of 98 to 100 °C.

In turn, `COc1ccc(CCNC(=O)/C=C(\C)c2ccc(C(=O)c3oc4c(OC)cccc4c3NC(=O)/C(C#N)=C(/C)O)cc2)cc1OC` [Example 106, N-[2-(4-{(E)-2-[2-(3,4-dimethoxyphenyl)ethylcarbamoyl]-1-methylvinyl}benzoyl)-7-methoxybenzofuran-3-yl]-2-cyano-3-hydroxy-(Z)-2-butenamide] had a melting point of 202.9 to 205.8 °C.

In general, melting point refers to the temperature, or range, at which the solid turns liquid.
